# Experimental data reported in ChEMBL document CHEMBL6109100, “Discovery of novel benzoxazole analogues as potential anticancer agent selectively targeting aromatase” (Bioorg Med Chem, 2025).
# How the values were obtained:
# MCF7 = assay: Cytotoxicity against human MCF7 cells assessed as reduction in cell viability measured after 48 hrs by SRB assay; type: functional
# Carbonic anhydrase 2 = Carbonic anhydrase 2 (Homo sapiens, UniProt P00918); assay: Inhibition of CA2 (unknown origin) using p-nitrophenyl acetate as substrate preincubated for 10 mins followed by substrate addition and measured after 30 mins by spectrophotometry
# T47D = assay: Cytotoxicity against human T47D cells assessed as reduction in cell viability measured after 48 hrs by SRB assay; type: functional
# [1] = biological target: Poly [ADP-ribose] polymerase 2 (Homo sapiens, UniProt Q9UGN5); assay: Inhibition of PARP-2 (unknown origin)
# Chain of Poly [ADP-ribose] polymerase 2 (Q9UGN5 whole entry): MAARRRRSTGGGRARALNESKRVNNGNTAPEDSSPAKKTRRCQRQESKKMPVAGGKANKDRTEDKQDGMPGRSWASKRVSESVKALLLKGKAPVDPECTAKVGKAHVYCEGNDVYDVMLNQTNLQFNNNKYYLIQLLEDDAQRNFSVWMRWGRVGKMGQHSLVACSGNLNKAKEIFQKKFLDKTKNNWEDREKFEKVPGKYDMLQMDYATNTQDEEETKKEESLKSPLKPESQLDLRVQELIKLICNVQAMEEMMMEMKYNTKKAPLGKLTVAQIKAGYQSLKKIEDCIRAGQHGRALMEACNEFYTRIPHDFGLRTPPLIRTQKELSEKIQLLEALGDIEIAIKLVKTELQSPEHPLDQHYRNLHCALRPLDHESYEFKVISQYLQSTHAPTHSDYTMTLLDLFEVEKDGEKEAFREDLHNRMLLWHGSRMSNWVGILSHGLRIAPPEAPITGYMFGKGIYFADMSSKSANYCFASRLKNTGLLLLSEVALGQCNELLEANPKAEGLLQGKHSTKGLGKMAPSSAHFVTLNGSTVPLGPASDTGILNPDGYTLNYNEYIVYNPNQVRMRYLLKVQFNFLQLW
# Histone deacetylase = assay: Inhibition of HDAC (unknown origin); type: protein assay, Homo sapiens
# MDA-MB-468 = assay: Cytotoxicity against human MDA-MB-468 cells assessed as reduction in cell viability measured after 48 hrs by SRB assay; type: functional
# Aromatase [2] = biological target: T1, Aromatase (Homo sapiens, UniProt P11511); assay: Inhibition of aromatase in human MCF7 cells using androstenedione as substrate measured after 2 hrs; type: cell-based
# T1 sequence (P11511 whole entry): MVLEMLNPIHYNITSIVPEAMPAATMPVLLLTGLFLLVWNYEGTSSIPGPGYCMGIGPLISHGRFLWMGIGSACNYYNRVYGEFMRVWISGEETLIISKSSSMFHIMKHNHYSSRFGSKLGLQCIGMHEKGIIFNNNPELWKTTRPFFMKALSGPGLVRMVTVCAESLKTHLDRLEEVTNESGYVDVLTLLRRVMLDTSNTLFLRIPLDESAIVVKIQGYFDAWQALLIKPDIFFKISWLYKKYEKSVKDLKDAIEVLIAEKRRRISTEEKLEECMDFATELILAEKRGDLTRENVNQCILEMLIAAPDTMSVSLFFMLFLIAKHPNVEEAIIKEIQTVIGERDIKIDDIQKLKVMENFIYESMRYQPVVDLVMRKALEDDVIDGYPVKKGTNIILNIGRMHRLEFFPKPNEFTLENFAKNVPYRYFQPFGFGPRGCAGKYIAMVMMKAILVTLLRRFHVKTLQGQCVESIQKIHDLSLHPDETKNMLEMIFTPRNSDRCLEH
# MDA-MB-231 [3] = assay: Cytotoxicity against human MDA-MB-231 cells assessed as reduction in cell viability measured after 48 hrs by SRB assay; type: functional
# [4] = Cytotoxicity against African green monkey Vero cells assessed as reduction in cell viability measured after 48 hrs by SRB assay; type: toxicity, cell-based; settings: chlorocebus sabaeus
# BT-549 = assay: Cytotoxicity against human BT-549 cells assessed as reduction in cell viability measured after 48 hrs by SRB assay; type: functional
# RPMI-8226 = assay: Cytotoxicity against human RPMI-8226 cells assessed as reduction in cell viability measured after 48 hrs by SRB assay; type: functional, cell-based; settings: RPMI-8226, 48 h
# MDA-MB-231 [5] = assay: Cytotoxicity against human MDA-MB-231 cells assessed as reduction in cell viability measured after 48 hrs by MTT assay; type: functional, cell-based; settings: MDA-MB-231, 48 h
# Aromatase [6] = biological target: T2, Aromatase (Rattus norvegicus, UniProt P22443); assay: Inhibition of rat aromatase measured after 2 hrs by ELISA
# T2 sequence (P22443 whole entry): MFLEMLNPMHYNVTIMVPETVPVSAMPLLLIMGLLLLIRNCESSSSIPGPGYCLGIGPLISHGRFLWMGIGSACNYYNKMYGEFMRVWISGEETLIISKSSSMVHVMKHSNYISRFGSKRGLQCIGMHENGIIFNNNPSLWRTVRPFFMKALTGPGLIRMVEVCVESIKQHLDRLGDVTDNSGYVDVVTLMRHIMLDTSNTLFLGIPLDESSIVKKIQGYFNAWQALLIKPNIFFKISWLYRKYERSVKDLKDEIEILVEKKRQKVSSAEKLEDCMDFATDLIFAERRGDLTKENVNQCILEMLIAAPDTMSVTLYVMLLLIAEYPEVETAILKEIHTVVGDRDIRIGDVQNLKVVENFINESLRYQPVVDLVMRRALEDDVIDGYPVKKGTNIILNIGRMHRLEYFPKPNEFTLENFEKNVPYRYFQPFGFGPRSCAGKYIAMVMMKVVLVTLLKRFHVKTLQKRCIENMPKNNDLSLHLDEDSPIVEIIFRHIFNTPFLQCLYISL
Structure (SMILES),GI50 (MCF7) [µM],further results
CS(=O)(=O)N1CCN(Cc2nc3cc(F)ccc3o2)CC1,29.8,
O=S(=O)(c1ccccc1)N1CCN(Cc2nc3cc(F)ccc3o2)CC1,8.56,
O=S(=O)(c1ccc(F)cc1)N1CCN(Cc2nc3cc(F)ccc3o2)CC1,6.52,
O=[N+]([O-])c1cccc(S(=O)(=O)N2CCN(Cc3nc4cc(F)ccc4o3)CC2)c1,3.25,
O=[N+]([O-])c1ccccc1S(=O)(=O)N1CCN(Cc2nc3cc(F)ccc3o2)CC1,5.95,
O=S(=O)(c1cccc2ccccc12)N1CCN(Cc2nc3cc(F)ccc3o2)CC1,12.5,
CN(C)S(=O)(=O)N1CCN(Cc2nc3cc(F)ccc3o2)CC1,18.3,
CCS(=O)(=O)N1CCN(Cc2nc3cc(F)ccc3o2)CC1,14.4,
O=[N+]([O-])c1ccc(S(=O)(=O)N2CCN(Cc3nc4cc(F)ccc4o3)CC2)cc1,1.02,
O=Cc1ccc(S(=O)(=O)N2CCN(Cc3nc4cc(F)ccc4o3)CC2)cc1,2.45,
COc1ccccc1S(=O)(=O)N1CCN(Cc2nc3cc(F)ccc3o2)CC1,4.63,
O=S(=O)(N1CCCCC1)N1CCN(Cc2nc3cc(F)ccc3o2)CC1,9.33,
O=S(=O)(N1CCOCC1)N1CCN(Cc2nc3cc(F)ccc3o2)CC1,10.3,
CC(C)(C)c1ccc(S(=O)(=O)N2CCN(Cc3nc4cc(F)ccc4o3)CC2)cc1,0.22,IC50 (Carbonic anhydrase 2): 4.1 µM; GI50 (T47D): 2.55 µM; IC50 [1]: 0.739 µM; IC50 (Histone deacetylase): 1.125 µM; GI50 (MDA-MB-468): 0.87 µM; IC50 (Aromatase [2]): 0.0649 µM; GI50 (MDA-MB-231 [3]): 0.49 µM; GI50 at 48 h [4]: 67.1 µM; GI50 (BT-549): 1.73 µM
CC(C)S(=O)(=O)N1CCN(Cc2nc3cc(F)ccc3o2)CC1,21.6,
Cc1ccc(S(=O)(=O)N2CCN(Cc3nc4cc(F)ccc4o3)CC2)cc1,1.73,
CN1CCN(S(=O)(=O)N2CCN(Cc3nc4cc(F)ccc4o3)CC2)CC1,7.37,
O=S(=O)(C1CC1)N1CCN(Cc2nc3cc(F)ccc3o2)CC1,25.1,
Cc1nc(Nc2nc3ccccc3o2)nc(-c2cccc([N+](=O)[O-])c2)c1C(=O)Nc1ccc(F)cc1Cl,,IC50 (RPMI-8226): 0.72 µM
CC(C)(C#N)c1cc(Cn2cncn2)cc(C(C)(C)C#N)c1 [ANASTROZOLE],,IC50 (MDA-MB-231 [5]): 1.21 µM; IC50 (Aromatase [6]): 3.93 µM
COc1cccc2c1C(=O)c1c(O)c3c(c(O)c1C2=O)C[C@@](O)(C(=O)CO)C[C@@H]3O[C@H]1C[C@H](N)[C@H](O)[C@H](C)O1 [DOXORUBICIN],0.89,GI50 (T47D): 3.78 µM; GI50 (MDA-MB-468): 0.53 µM; GI50 (MDA-MB-231 [3]): 0.14 µM; GI50 at 48 h [4]: 143 µM; GI50 (BT-549): 2.01 µM
N#Cc1ccc(C(c2ccc(C#N)cc2)n2cncn2)cc1 [LETROZOLE],,IC50 (MDA-MB-231 [5]): 1.27 µM; IC50 (Aromatase [6]): 0.29 µM
